Assay [1] concerns TGF-β-stimulated SMAD3 phosphorylation in BEAS-2B cells. Nature of the assay: Cellular ALK5 potency assay, inhibition of TGF-β stimulated pSMAD3 formation in BEAS-2B cells. Type of assay: cell-based. To be noted: Homo sapiens; inhibition of TGF-β stimulated pSMAD3 formation, BEAS-2B cells; read-out: BEAS2B pIC50 (converted). The method, boiled down:
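pSMAD3 was quantified by AlphaLISA in BEAS-2B lysates after 10 ng/mL TGF-β (final) for 30 min. Before stimulation, cells received compound for 1 h at 37° C in supplemented HBSS. Values are pIC50, relative to TGF-β-stimulated cells without compound.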

Assay [2] has as its target T1, recombinant human ALK5 (TGF-βR1) protein (Homo sapiens, UniProt P36897).
T1 construct: purchased Life Technologies PR9075A
T1 sequence (P36897 34-503): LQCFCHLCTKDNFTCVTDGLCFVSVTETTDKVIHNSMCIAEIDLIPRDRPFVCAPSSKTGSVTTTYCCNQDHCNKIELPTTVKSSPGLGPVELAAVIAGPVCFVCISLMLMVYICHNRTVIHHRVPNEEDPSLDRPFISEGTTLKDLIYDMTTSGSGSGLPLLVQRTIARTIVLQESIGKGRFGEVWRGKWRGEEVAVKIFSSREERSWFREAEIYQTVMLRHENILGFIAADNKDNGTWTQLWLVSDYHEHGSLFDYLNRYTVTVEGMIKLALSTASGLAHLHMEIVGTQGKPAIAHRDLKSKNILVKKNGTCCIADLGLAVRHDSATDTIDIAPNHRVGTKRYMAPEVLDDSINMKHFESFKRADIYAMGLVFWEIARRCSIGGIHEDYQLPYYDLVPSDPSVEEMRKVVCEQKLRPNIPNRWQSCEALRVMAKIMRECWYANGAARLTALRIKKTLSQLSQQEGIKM
Nature of the assay: Biochemical ALK5 (TGF-βR1) assay to measure pKi (LANCE Ultra ULight kinase assay). To be noted: apparent pKi from pIC50 by Cheng-Prusoff, read-out: ALK5 pKi (converted). The gist of the method: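 Dose range 10 μM–25 pM; enzyme + compound 60 min RT; ATP added (5× stock 125 μM, 2 mM DTT); 60 min 37 °C; stop with EDTA + Eu anti-phospho-Topo IIα Thr1342 Ab; TR-FRET ex 320/340, em 665 nm. 4-param pIC50 → pKi (Cheng-Prusoff).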
For orientation: In TR-FRET formats the signal depends on donor and acceptor labels being close together.

For `Cc1cccc(-c2[nH]cnc2-c2ccc3ncc(NCCN4CC5(CC(N)C5)C4)cc3c2)n1` [Compound 715, N-[2-(6-amino-2-azaspiro[3.3]heptan-2-yl)ethyl]-6-[5-(6-methyl-2-pyridyl)-1H-imidazol-4-yl]quinolin-3-amine], the IC50 in assay [1] was 200 to 1260 nM. For the same compound, the Ki in assay [2] is 0.0398 to 0.316 nM.
Turning to `Cc1cccc(-c2n[nH]cc2-c2ccc3ncc(-c4cnc(N)s4)cc3n2)n1` [Compound 333, 5-[6-[3-(6-methyl-2-pyridyl)-1H-pyrazol-4-yl]-1,5-naphthyridin-3-yl]thiazol-2-amine], the IC50 in assay [1] is 25.1 to 158 nM. Also, the Ki in assay [2] is 0.0398 to 0.316 nM.
Regarding `CN[C@H]1CC[C@H](OC(=O)c2cnc3ccc(-c4cn[nH]c4-c4cccc(C)n4)cc3c2)CC1` [Compound 1221, [4-(methylamino)cyclohexyl] 6-[5-(6-methyl-2-pyridyl)-1H-pyrazol-4-yl]quinoline-3-carboxylate], the IC50 in assay [1] is < 20 nM. Besides, the Ki in assay [2] was 0.0398 to 0.316 nM.
The corresponding values for `CCOC(=O)Cn1cc(-c2cnc3ccc(-c4c[nH]nc4-c4cccc(C)n4)nc3c2)nn1` [Compound 76, ethyl 2-[4-[6-[3-(6-methyl-2-pyridyl)-1H-pyrazol-4-yl]-1,5-naphthyridin-3-yl]triazol-1-yl]acetate] are 25.1 to 158 nM and 0.0398 to 0.316 nM.
For `Cc1cccc(-c2[nH]cnc2-c2ccc3ncc(N4CCC(NC(=O)[C@@H]5CCCN5)CC4)cc3c2)n1` [Compound 388, (2S)-N-[1-[6-[5-(6-methyl-2-pyridyl)-1H-imidazol-4-yl]-3-quinolyl]-4-piperidyl]pyrrolidine-2-carboxamide], the IC50 in assay [1] was 200 to 1260 nM. For the same compound, in assay [2], the Ki was 0.0398 to 0.316 nM.
For `Cc1cccc(-c2n[nH]cc2-c2ccc3ncc(-c4[nH]nc5c4CCN5)cc3n2)n1` [Compound 393, 2-[3-(6-methyl-2-pyridyl)-1H-pyrazol-4-yl]-7-(2,4,5,6-tetrahydropyrrolo[2,3-c]pyrazol-3-yl)-1,5-naphthyridine], in that order: 25.1 to 158 nM and < 0.0316 nM.
The corresponding values for `Cc1cccc(-c2n[nH]cc2-c2ccc3ncc(N4CCC(N5CCCC5)C4)cc3n2)n1` (stereo not shown) [Compound 336, 2-[3-(6-methyl-2-pyridyl)-1H-pyrazol-4-yl]-7-(3-pyrrolidin-1-ylpyrrolidin-1-yl)-1,5-naphthyridine] are 25.1 to 158 nM and < 0.0316 nM.
For `Cc1cccc(-c2n[nH]cc2-c2ccc3nccc(NC(=O)CCCN4CCOCC4)c3n2)n1` [Compound 842, N-[6-[3-(6-methyl-2-pyridyl)-1H-pyrazol-4-yl]-1,5-naphthyridin-4-yl]-4-morpholino-butanamide], in that order: 25.1 to 158 nM and 0.398 to 3.16 nM.
Turning to `Cc1nc(-c2n[nH]cc2-c2ccc3ncc(-c4nnn5c4NCC5)cc3n2)ccc1F` [Compound 520, 7-(5,6-dihydro-4H-imidazo[1,2-c]triazol-3-yl)-2-[3-(5-fluoro-6-methyl-2-pyridyl)-1H-pyrazol-4-yl]-1,5-naphthyridine], the IC50 in assay [1] is 25.1 to 158 nM. Further, the Ki in assay [2] is < 0.0316 nM.
`CNCCn1cc(-c2cnc3ccc(-c4nc[nH]c4-c4ccc(F)c(C)n4)nc3c2)cn1` [Compound 559, 2-[4-[6-[5-(5-fluoro-6-methyl-2-pyridyl)-1H-imidazol-4-yl]-1,5-naphthyridin-3-yl]pyrazol-1-yl]-N-methyl-ethanamine]: the IC50 in assay [1] was 25.1 to 158 nM. The Ki in assay [2] is 0.0398 to 0.316 nM.
For `Cc1cccc(-c2[nH]cnc2-c2ccc3ncc(-c4cc(C(=O)OCC5CNC5)ccn4)cc3c2)n1` [Compound 1157, azetidin-3-ylmethyl 2-[6-[5-(6-methyl-2-pyridyl)-1H-imidazol-4-yl]-3-quinolyl]pyridine-4-carboxylate], in that order: 25.1 to 158 nM and 0.0398 to 0.316 nM.
The corresponding values for `Cc1cccc(-c2n[nH]cc2-c2ccc3ncc(CNCCCN4CCOCC4)cc3n2)n1` [Compound 155, N-[[6-[3-(6-methyl-2-pyridyl)-1H-pyrazol-4-yl]-1,5-naphthyridin-3-yl]methyl]-3-morpholino-propan-1-amine] are 25.1 to 158 nM and 0.398 to 3.16 nM.
The corresponding values for `Cc1cccc(-c2[nH]ncc2-c2ccc3ncc(C(=O)OC4CCN(C)C4)cc3n2)n1` (stereo not shown) [Compound 523, (1-methylpyrrolidin-3-yl) 6-[5-(6-methyl-2-pyridyl)-1H-pyrazol-4-yl]-1,5-naphthyridine-3-carboxylate] are 25.1 to 158 nM and 0.0398 to 0.316 nM.
Regarding `Cc1cccc(-c2nc3ccccn3c2-c2ccc3ncc(N4CCNCC4)cc3c2)n1` [Compound 287, 6-[2-(6-methyl-2-pyridyl)imidazo[1,2-a]pyridin-3-yl]-3-piperazin-1-yl-quinoline], in assay [1], the IC50 was 25.1 to 158 nM. For the same compound, the Ki in assay [2] was 0.0398 to 0.316 nM.
For `Cc1nc(-c2n[nH]cc2-c2ccc3ncc(-c4cnn(CCN)c4)cc3n2)ccc1F` [Compound 192, 2-[4-[6-[3-(5-fluoro-6-methyl-2-pyridyl)-1H-pyrazol-4-yl]-1,5-naphthyridin-3-yl]pyrazol-1-yl]ethanamine], in that order: < 20 nM and < 0.0316 nM.
For `Cc1cccc(-c2n[nH]cc2-c2ccc3nccc(CN4CCOCC4)c3n2)n1` [Compound 811, 4-[[6-[3-(6-methyl-2-pyridyl)-1H-pyrazol-4-yl]-1,5-naphthyridin-4-yl]methyl]morpholine], in that order: 200 to 1260 nM and 0.0398 to 0.316 nM.
The corresponding values for `Cc1cccc(-c2[nH]cnc2-c2ccc3ncc(NCCN4CCC5(CCNCC5)C4)cc3c2)n1` [Compound 703, N-[2-(2,8-diazaspiro[4.5]decan-2-yl)ethyl]-6-[5-(6-methyl-2-pyridyl)-1H-imidazol-4-yl]quinolin-3-amine] are 25.1 to 158 nM and 0.0398 to 0.316 nM.
For `Cc1cccc(-c2[nH]cnc2-c2ccc3ncc(C4=CCN(C(=O)[C@@H]5CCCN5)CC4)cc3c2)n1` [Compound 779, [4-[6-[5-(6-methyl-2-pyridyl)-1H-imidazol-4-yl]-3-quinolyl]-3,6-dihydro-2H-pyridin-1-yl]-[(2S)-pyrrolidin-2-yl]methanone], in assay [1], the IC50 is 25.1 to 158 nM. Moreover, in assay [2], the Ki was 0.0398 to 0.316 nM.
The corresponding values for `Cc1cccc(-c2nnn(Cc3ccccc3)c2-c2ccc3ncc(NCCN4CCN(C(C)C)CC4)cc3c2)n1` [Compound 584, 6-[3-benzyl-5-(6-methyl-2-pyridyl)triazol-4-yl]-N-[2-(4-isopropylpiperazin-1-yl)ethyl]quinolin-3-amine] are 200 to 1260 nM and 0.0398 to 0.316 nM.
The corresponding values for `Cc1cccc(-c2n[nH]cc2-c2ccc3ncc(NCCN4CCCC4)cc3n2)n1` [Compound 597, 6-[3-(6-methyl-2-pyridyl)-1H-pyrazol-4-yl]-N-(2-pyrrolidin-1-ylethyl)-1,5-naphthyridin-3-amine] are 25.1 to 158 nM and < 0.0316 nM.
For `Cc1nc(-c2n[nH]cc2-c2ccc3ncc(N4CCC(N5CCCC5)CC4)cc3n2)ccc1F` [Compound 114, 2-[3-(5-fluoro-6-methyl-2-pyridyl)-1H-pyrazol-4-yl]-7-(4-pyrrolidin-1-yl-1-piperidyl)-1,5-naphthyridine], in that order: 25.1 to 158 nM and < 0.0316 nM.
Turning to `Cc1cccc(-c2n[nH]cc2-c2ccc3ncc(N4CCN(C)CC4)cc3n2)n1` [Compound 654, 7-(4-methylpiperazin-1-yl)-2-[3-(6-methyl-2-pyridyl)-1H-pyrazol-4-yl]-1,5-naphthyridine], the IC50 in assay [1] was 25.1 to 158 nM. In addition, the Ki in assay [2] was 0.0398 to 0.316 nM.
The corresponding values for `Cc1cccc(-c2[nH]cnc2-c2ccc3ncc(C4=CCC(NCC5CCC(=O)O5)CC4)cc3c2)n1` (stereo not shown) [Compound 590, 5-[[[4-[6-[5-(6-methyl-2-pyridyl)-1H-imidazol-4-yl]-3-quinolyl]cyclohex-3-en-1-yl]amino]methyl]tetrahydrofuran-2-one] are 25.1 to 158 nM and 0.0398 to 0.316 nM.
`Cc1cccc(-c2[nH]ncc2-c2ccc3ncc(C(=O)OCCN4CCNCC4)cc3n2)n1` [Compound 277, 2-piperazin-1-ylethyl 6-[5-(6-methyl-2-pyridyl)-1H-pyrazol-4-yl]-1,5-naphthyridine-3-carboxylate]: the IC50 in assay [1] is 200 to 1260 nM. The Ki in assay [2] is 0.0398 to 0.316 nM.
Consider `Cc1cccc(-c2[nH]cnc2-c2ccc3ncc(-c4ccc5c(c4)C(N)CC5)cc3c2)n1` (stereo not shown) [Compound 726, 6-[6-[5-(6-methyl-2-pyridyl)-1H-imidazol-4-yl]-3-quinolyl]indan-1-amine], for which, in assay [1], the IC50 is 25.1 to 158 nM. In addition, the Ki in assay [2] is < 0.0316 nM.
For `Cc1cccc(-c2[nH]ncc2-c2ccc3ncc(C(=O)OCCN4CCCC4)cc3n2)n1` [Compound 361, 2-pyrrolidin-1-ylethyl 6-[5-(6-methyl-2-pyridyl)-1H-pyrazol-4-yl]-1,5-naphthyridine-3-carboxylate], in that order: 25.1 to 158 nM and 0.398 to 3.16 nM.

(Values after patent publication US11590116B2 (THERAVANCE BIOPHARMA R&D IP, LLC, priority 2019, dated 2023).)
